This note sets out measurements from patent EP4810508A1, “ARABINOSE DERIVATIVE COMPOUND, AND COMPOSITION COMPRISING SAME FOR PREVENTING OR TREATING DEGENERATIVE BRAIN DISEASES” (Digmbio. Inc., priority 2023, dated 2025).

Experiment [1] relates to male ICR mice. Description: Scopolamine-induced cognitive impairment model: passive avoidance test (PAT). Format: in vivo. The following applies: for percent recovery of memory in passive avoidance test (normal group = 100, scopolamine control = 0) at 50 mg/kg: Mus musculus, po, 168 h, read-out: in vivo(effect) PAT (%); for cognitive function recovery compared to normal animals, passive avoidance test (effect %): compounds 50 mg/kg, donepezil 5 mg/kg, orally for 7 days, scopolamine 1 mg/kg intraperitoneal; for in vivo PAT: time staying in bright room (step-through latency), scopolamine 1 mg/kg i.p., compounds 50 mg/kg oral for 7 days, donepezil 5 mg/kg (avg.). From the text: (§1) A memory loss rodent animal model induced by scopolamine intraperitoneal administration is used, and an evaluation method for memory uses a Y-maze test and a passive avoidance test (PAT). Scopolamine is a representative experimental model showing an impairment of cognitive function similar to AD patients by blocking neurotransmitters when administered to an animal as an antagonist of a muscarinic acetylcholine receptor, and as a cognitive function evaluation technique, a Y-maze test and a passive avoidance experiment, which are general and representative methods, were used, and in order to objectify the efficacy levels of the compounds, a group administered with donepezil (Aricept, Eisa) as a positive control material was separately provided to compare the efficacy levels of the compounds.
(§2) In order to evaluate cognitive function, 5-week-old male ICR mice were used, the compounds to be evaluated were prepared at a dose of 50 mg/kg/ml and repeatedly orally administered at a predetermined time for 7 days, and the positive control material was carried out at 5 mg/kg/ml. After the last administration, after 30 minutes of intraperitoneal administration of 1 mg/kg/2 ml of scopolamine, a Y-maze test and a passive avoidance test, which are cognitive function evaluations, were performed.
In addition, the passive avoidance test was conducted using an avoidance learning box (Jeondo B&P, Korea, Seoul), and the avoidance learning box is divided into a dark room and a bright room, and when a laboratory animal is put into a bright room, the subject goes beyond the dark room. At the moment, an electric shock of 0.5 mA is applied for 5 seconds, and when the next day experimental animal is put back into a bright room, an electric shock in a dark room is memorized and stay in a bright room. In this case, a step-through latency is measured to evaluate memory. The efficacy of the compounds of the present invention against the normal group and the control group in the Y-maze test and the passive avoidance test was described in the following Table 3 (Scopolamine-induced cognitive impairment model result).

The subject of experiment [2] is male ICR mice. Description: Scopolamine-induced cognitive impairment model: Y-maze test. It is filed as in vivo. The following applies: for percent recovery of cognitive function (Y-maze) at 50 mg/kg: Mus musculus, po, 168 h; for in vivo Y-maze (%): spontaneous alternation, scopolamine 1 mg/kg i.p., compounds 50 mg/kg oral for 7 days, donepezil 5 mg/kg (avg.).
Source text: as §1, §2
The Y-maze test is a method for evaluating the ability to sequentially act as an experiment for measuring short-term memory. The measurement equipment is composed of three branches, each branch has a length of 42 cm, a width of 3 cm, and a height of 12 cm, and an angle at which three branches are folded is 120°. Experimental animals are put into each branch for 8 minutes, and the number of times of entering the branches to the tail of the experimental animal and the case of being sequentially received in each branch are scored (actual alternation). The alternation behavior is defined as entering not to overlap all three, and is calculated by the following equation. [formula]

Another experiment relates to HRE/Luc/HEK293 cells. The experiment is described as follows: HRE (Hypoxia Response Element) luciferase assay. It is filed as cell-based, human. The conditions noted are these: for fold induction at 10 µM / fold induction at 100 µM: Homo sapiens; for HRE assay: increase in HRE expression levels by the test substance relative to the vehicle in HRE/Luc/HEK293 cells. A digest of the protocol:
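HRE-luciferase HEK293 cells in MEM/10% FBS pretreated with compound 6 h, then held under hypoxia (0.1% O2) 18 h; luminescence read after lysis. Scored as fold increase over vehicle, with twofold threshold at 100, 10 or 1 µM.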

Setting [3] is: read-out: cognitive function recovery compared to normal animals, Y-maze experiment (effect %).
Setting [4] is: read-out: in vivo(effect) Y-maze (%).
The mark [5] stands for this setting: HEK293, fold increase of HRE expression, hypoxic conditions (O2 0.1%) 18 hours, Table 2, read-out: HRE-increasing 10uM.
[6] abbreviates: HEK293, fold increase of HRE expression, hypoxic conditions (O2 0.1%) 18 hours, Table 2, read-out: HRE-increasing 100uM.

Read-outs that look alike come from different tables or passages of the source.

On to `CCOc1ccc(C(C)(C)c2ccc(O[C@H]3OC[C@H](O)[C@H](O)[C@H]3O)cc2)cc1` [Example 31, (2R,3R,4S,5S)-2-(4-(2-(4-ethoxyphenyl)propan-2-yl)phenoxy)tetrahydro-2H-pyran-3,4,5-triol], for which, in the experiment on male ICR mice [1], the percent recovery of memory in passive avoidance test (normal group = 100, scopolamine control = 0) at 50 mg/kg worked out at 65%; the “cognitive function recovery compared to normal animals, passive avoidance test (effect %)” value (shortened to “cognitive function recovery … (effect %)”) is listed as at least 50%; the “in vivo PAT” value was 204 s. The percent recovery of cognitive function (Y-maze) at 50 mg/kg in the experiment on male ICR mice [2] (setting [3]) is at least 50%. The percent recovery of cognitive function (Y-maze) at 50 mg/kg with male ICR mice [2] (setting [4]) came to 71%. Also, the “in vivo Y-maze (%)” value in the experiment with male ICR mice [2] is listed as 68%. Besides, the fold induction at 10 µM in the experiment with HRE/Luc/HEK293 cells (setting [5]) is 1.1. The fold induction at 100 µM in the experiment on HRE/Luc/HEK293 cells (setting [6]) came out at 1.6.

Regarding `O[C@@H]1[C@@H](O)[C@@H](Oc2ccc(Cc3ccccc3)cc2)OC[C@@H]1O` [Example 1, (2R,3R,4S,5S)-2-(4-benzylphenoxy)tetrahydro-2H-pyran-3,4,5-triol], in the experiment on male ICR mice [1], the percent recovery of memory in passive avoidance test (normal group = 100, scopolamine control = 0) at 50 mg/kg worked out at 35% and the “in vivo PAT” value is 133 s. Besides, in the experiment on male ICR mice [2] (setting [4]), the percent recovery of cognitive function (Y-maze) at 50 mg/kg came to 38%. Besides, in the experiment on male ICR mice [2], the “in vivo Y-maze (%)” value came out at 64%. In addition, the fold induction at 10 µM in the experiment with HRE/Luc/HEK293 cells (setting [5]) came out at 1.2. For the same molecule, in the experiment with HRE/Luc/HEK293 cells (setting [6]), the fold induction at 100 µM worked out at 2.2. In addition, the HRE assay result with HRE/Luc/HEK293 cells is “••”.

Regarding `CC(C)c1ccc(Cc2ccc(O[C@H]3OC[C@H](O)[C@H](O)[C@H]3O)c(F)c2)cc1` [Example 41, (2R,3R,4S,5S)-2-(2-fluoro-4-(4-isopropylbenzyl)phenoxy)tetrahydro-2H-pyran-3,4,5-triol], the percent recovery of memory in passive avoidance test (normal group = 100, scopolamine control = 0) at 50 mg/kg in the experiment on male ICR mice [1] came out at 16%. The “in vivo PAT” value in the experiment on male ICR mice [1] was 69.6 s. In addition, the percent recovery of cognitive function (Y-maze) at 50 mg/kg was at least 50% with male ICR mice [2] (setting [3]) and 54% in the experiment with male ICR mice [2] (setting [4]). Besides, in the experiment on male ICR mice [2], the “in vivo Y-maze (%)” value is listed as 59.8%. Moreover, the fold induction at 10 µM in the experiment with HRE/Luc/HEK293 cells (HEK293, 18 h, Table 2 (Examples 37-74, 52), read-out: HKt-increasing 10uM) stood at 3. The fold induction at 100 µM in the experiment with HRE/Luc/HEK293 cells (HEK293, 18 h, Table 2 (Examples 37-74, 52), read-out: HKt-increasing 100uM) was determined as 3.2. Also, the HRE expression entry with HRE/Luc/HEK293 cells (low concentration of 1 µM) is recorded as “more than threefold”.

On to `COc1ccc(C(C)(C)c2ccc(O[C@H]3OC[C@H](O)[C@H](O)[C@H]3O)cc2)cc1` [Example 30, (2R,3R,4S,5S)-2-(4-(2-(4-methoxyphenyl)propan-2-yl)phenoxy)tetrahydro-2H-pyran-3,4,5-triol], for which, in the experiment on male ICR mice [1], the percent recovery of memory in passive avoidance test (normal group = 100, scopolamine control = 0) at 50 mg/kg was found to be 60%; the “cognitive function recovery … (effect %)” value is at least 50%; the “in vivo PAT” value turned out to be 194 s. For the same molecule, the percent recovery of cognitive function (Y-maze) at 50 mg/kg in the experiment on male ICR mice [2] (setting [4]) amounted to 45%. Also, the “in vivo Y-maze (%)” value with male ICR mice [2] turned out to be 63%. The fold induction at 10 µM in the experiment with HRE/Luc/HEK293 cells (setting [5]) is 1.1. In the experiment on HRE/Luc/HEK293 cells (setting [6]), the fold induction at 100 µM is 1.4.

As to `COc1ccc(Cc2ccc(O[C@H]3O[C@@H](C)[C@@H](O)[C@@H](O)[C@@H]3O)cc2)cc1` [Example 6, (2R,3S,4R,5S,6S)-2-(4-(4-methoxybenzyl)phenoxy)-6-methyltetrahydro-2H-pyran-3,4,5-triol], in the experiment with male ICR mice [1], the percent recovery of memory in passive avoidance test (normal group = 100, scopolamine control = 0) at 50 mg/kg worked out at 10% and the “in vivo PAT” value was 109 s. Further, in the experiment with male ICR mice [2] (setting [4]), the percent recovery of cognitive function (Y-maze) at 50 mg/kg is -6%. The “in vivo Y-maze (%)” value in the experiment with male ICR mice [2] is 53%. Moreover, in the experiment with HRE/Luc/HEK293 cells (setting [5]), the fold induction at 10 µM was under 1. The fold induction at 100 µM in the experiment with HRE/Luc/HEK293 cells (setting [6]) is 1.5. In addition, in the experiment on HRE/Luc/HEK293 cells, the HRE assay entry was “•”.

`COc1ccc(Cc2ccc(O[C@H]3OC[C@H](O)[C@H](O)[C@H]3O)cc2)cc1` [Example 3, (2R,3R,4S,5S)-2-(4-(4-methoxybenzyl)phenoxy)tetrahydro-2H-pyran-3,4,5-triol]: in the experiment on male ICR mice [1], the percent recovery of memory in passive avoidance test (normal group = 100, scopolamine control = 0) at 50 mg/kg was determined as 91%; the “cognitive function recovery … (effect %)” value amounted to 91%; the “in vivo PAT” value is 206 s. In addition, in the experiment on male ICR mice [2] (setting [3]), the percent recovery of cognitive function (Y-maze) at 50 mg/kg was 59%. Also, the percent recovery of cognitive function (Y-maze) at 50 mg/kg in the experiment on male ICR mice [2] (setting [4]) turned out to be 59%. For the same molecule, the “in vivo Y-maze (%)” value in the experiment with male ICR mice [2] turned out to be 61%. Besides, the fold induction at 10 µM in the experiment on HRE/Luc/HEK293 cells (setting [5]) came out at 1.5. Moreover, the fold induction at 100 µM in the experiment with HRE/Luc/HEK293 cells (setting [6]) was found to be 3.1. For the same molecule, the HRE assay entry with HRE/Luc/HEK293 cells is reported as “••”.
